From patent US9333212B2, “Proteasome inhibitors as ovoprotective agents to shield the ovary from chemotherapy toxicity” (Wisconsin Alumni Research Foundation, priority 2013, dated 2016)
Entries after “also recorded” stand apart in the source; their conditions may differ. Residues, ends and D or L forms follow the SMILES beside them. *: point of attachment. Cbz = O=C(OCc1ccccc1)*

How the values were obtained:
[1] = system: γH2AX phosphorylation, PTEN, phospho-AKT1, Caspase 3 in mouse ovary; assay: Western blots of ovarian lysates for cell response markers
Experimental: Lysate Preparation and Western Blots. Ovaries were homogenized, protein quantified, and WBs were conducted previously described [9]. Blots were probed with rabbit anti-γH2AFX antibody (Abcam, 1:500), and mouse anti-β actin (Sigma, 1:10,000), rabbit anti-phospho AKT1 (Cell Signaling 1:1000), rabbit anti-PTEN (Cell Signaling 1:1000), and rabbit anti-Caspase 3 (Cell Signaling 1:1000. WBs were scanned and analyzed using the 5 LiCor Odyssey System (UW-Small Molecule Screening Facility) [9].
Mice. […] Four-week old female CD1 mice were treated with 0.143 mg/kg Bort or vehicle control, followed by 20 mg/kg DXR (twice the human equivalent dose) or saline via intraperitoneal injection (200 μL total volume/injection) 1 hour later. Three mice were injected per time point, 2, 4, 6, 12, and 24 hours, as indicated. Mice were euthanized with CO2 per approved protocol, and ovaries were processed as previously described [13].
To determine whether Bort prevents the cellular response to DXR insult, Western blots (WBs) of ovarian lysates were probed for cell response markers at 6 and 24 hrs post-injection.

kidney = conditions: by preserving Mcl-1 levels; cited from earlier work
[2] = system: mouse ovarian cells (granulosa, stromal/thecal cells, oocytes); assay: Neutral comet assay of dsDNA breaks in ovarian cells isolated from treated mice
Experimental: The neutral comet assay was used to measure acute DXR-induced double-strand DNA breaks in an in vivo mouse model as previously described [32]. 4-week-old adolescent female CD1 mice were pre-treated with intraperitoneal (i.p.) injection of 0.143 mg/kg Bort 1 hr prior to 20 mg/kg DXR.
Four-week old female CD1 mice were treated with 0.143 mg/kg Bort or vehicle control, followed by 20 mg/kg DXR (twice the human equivalent dose) or saline via intraperitoneal injection (200 μL total volume/injection) 1 hour later. Three mice were injected per time point, 2, 4, 6, 12, and 24 hours, as indicated.
Neutral Comet Assay. Ovaries were processed to provide enriched populations of granulosa cells/oocytes, and stromal/thecal cells that were utilized in the neutral comet assay [9, 13]. At least 100 granulosa and stromal cells and 50 oocytes were imaged from blinded slides per time point per mouse (3 mice/replicate) [9, 13]. The comet moment to quantify DNA damage was scored using CometScore software. Data were normalized to control for each experiment to allow pooling across experiments.
Four week-old adolescent mice were pretreated with 0.143 mg/kg Bort or vehicle control via i.p. injection 1 hour prior to 20 mg/kg DXR i.p. injection. The Bort dose corresponded to ⅓ the lowest human equivalent dose utilized in chemo regimens (0.43 mg/m2 vs. 1.3 mg/m2), while the DXR dose was double the standard human equivalent dose to allow direct imaging of DXR fluorescence in subsequent experiments.

[3] = DXR accumulation in mouse ovary by autofluorescence (spectral confocal imaging); type: in vivo; conditions: Bort pretreatment before DXR
From the text: FIG. 11. […] A. Micrographs of mouse ovarian sections obtained by spectral confocal imaging (ex. 488 nm, em. given in panel B). Images are overlays of all collected emission wavelengths. Bar=40 μm. For print, images were adjusted equally to a threshold of 140 in Photoshop with no other image enhancements. B. Graph plots mean fluorescence intensity+/−SEM quantified from raw DXR fluorescence in ovarian sections representing the top, middle, and bottom third of the ovary. Emission profiles at 550-560 nm (cold finger) were not collected by the microscope to prevent direct detection of the excitation laser at that wavelength. Confocal parameters were identical from one sample to the next. DXR points are statistically significant from ctl and Bort-DXR with p<0.05, one-way ANOVA, Bonferroni means comparison.
Fluorescence Microscopy. Images were collected using a Nikon A1 laser scanning microscope with a motorized stage to image the entire section at 400× magnification. Each spectral image was taken at the Z plane providing maximal signal in the section utilizing identical laser settings with the spectral scan head, exciting at 488 nm and collecting emissions from 520 nm through 720 nm at 10 nm intervals. […] Total DXR fluorescence was measured in each section image using Nikon Elements, quantifying fluorescent intensity at each emission wavelength.

mouse ovarian follicles [4] = assay: TUNEL assay, follicular apoptotic index in mouse ovary; type: in vivo
From the text: FIG. 5. […] Ovaries were harvested from treated mice 12 hrs post-DXR injection, fixed, and processed for the TUNEL assay. Apoptotic index measures the fraction of cells dying via apoptosis in each group. *p<0.05 one-way ANOVA n=4 mice.
To determine whether Bort pretreatment prevents DXR-induced follicular apoptosis, ovaries were harvested from mice treated with control, DXR, or Bort+DXR, 12 hrs after chemotherapy administration. Ovaries were fixed and stained using the TUNEL assay. Follicles were scored as apoptotic if they contained ≧4 TUNEL-positive granulosa cells.
TUNEL Staining. Apoptosis was detected utilizing ApopTag Plus Fluorescein In Situ Apoptosis Detection Kit as previously described. Nuclei were counterstained with 0.5 ug/mL Propidium Iodide. Apoptotic index was determined only counting follicles containing a visible oocyte; follicle types were differentiated by standard morphology and size ranges. Primary, secondary, and antral follicles were considered positive if they had ≧4 TUNEL-positive granulosa cells.
To ascertain whether Bort pretreatment prevents DXR-induced follicular apoptosis, ovaries were harvested from mice treated with control vehicle, Bort, DXR, or Bort+DXR, 12 hrs after chemo administration.

L1210 cells = conditions: cited from earlier work
KK-15 granulosa cells = assay: Neutral comet assay in KK-15 cells pretreated with proteasome inhibitor before DXR; type: cell-based; conditions: 1 h pretreatment, then 3 hr 50 nM DXR
Experimental: FIG. 6. […] (A) Pretreating KK-15 cells for 1 h with the indicated Bortezomib doses prevented dsDNA breaks caused by 3 hr, 50 nM DXR treatment, as measured by the NCA. […] Bar graphs summarize comet moment data. Bortezomib (n=3, ***p<0.001), MG-132, (n=4, ***p<0.001) ANOVA with Bonferroni means comparison.
(§1) KK-15 cells were pretreated with either Bort or MG-132, boronate and aldehyde inhibitors, respectively, for 1 hr prior to DXR.

female CD-1 mice = assay: Breeding trial: pup birth weight and litter size of treated female mice; type: in vivo, mouse
Experimental: Both drugs were administered via i.p. injection. Female mice were then mated with proven fertile males starting at 8 weeks of age. Females were mated continuously with males, separated only for pup delivery, then re-mated immediately with rotated males. Pregnancy and litters were followed until females reached 8 months of age or became infertile.

KK-15 cells = assay: DXR LD50 in KK-15 cells; type: cell-based
From the text: as §1

[5] = in vivo; cited from earlier work
mouse ovarian follicles [6] = conditions: previous characterization, cited from earlier work
[7] = system: mouse ovarian cells (granulosa, stromal/thecal cells, oocytes); conditions: previous characterization, cited from earlier work
[8] = 1 month post-DXR; cited from earlier work
[9] = system: cardiac-derived H9C2 cells; conditions: cited from earlier work
rodent ovary = conditions: in vivo; cited from earlier work
[10] = Bort pretreatment, 24 hrs post-injection
[11] = Bort pretreatment vs DXR alone, 12 hrs post-DXR

CC(C)C[C@H](NC(=O)[C@H](Cc1ccccc1)NC(=O)c1cnccn1)B(O)O [Bort, bortezomib]
DXR-induced γH2A.X phosphorylation ([1]; 1 hr Bort pretreatment, 6 hrs post-DXR injection): attenuated DXR-induced γH2A.X phosphorylation; also recorded: attenuates γH2AX phosphorylation
DXR-induced PTEN protein reduction ([1]; Bort pretreatment, 6 hrs post-injection): PTEN protein reduction was eliminated
DXR-induced decrease of full-length Caspase 3 [1, 10]: prevented
DXR-induced loss of pAKT1 [1, 10]: similarly prevented; also recorded: restored AKT1 phosphorylation to control levels
protection of the kidney from cisplatin toxicity (kidney): shields the kidney from cisplatin toxicity
comet moment, stromal cells, deviation from control ([2]; 0.143 mg/kg Bort i.p. 1 hr before 20 mg/kg DXR): ≤ 16 % of control
comet moment, granulosa cells, deviation from control ([2]; 0.143 mg/kg Bort i.p. 1 hr before 20 mg/kg DXR, 2-24 hrs): ≤ 10 % of control
DXR-induced DNA damage in stroma cells ([2]; Bort pretreatment, 4 hrs post-DXR): attenuates DXR-induced DNA damage
DXR-induced DNA damage in granulosa and stromal cells ([2]; Bort pretreatment, 12 hrs post-DXR): attenuates DXR-induced DNA damage
DXR-induced DNA damage in granulosa cells ([2]; Bort pretreatment, 24 hrs post-DXR): attenuates DXR-induced DNA damage
DXR-induced DNA damage in oocytes ([2]; Bort pretreatment, 24 hrs post-DXR injection): completely blocked DNA damage
DXR-induced dsDNA breaks in all ovarian cell types (granulosa, stromal cells, oocytes) ([2]; Bort pretreatment, entire 24 hour acute insult period): completely prevented DXR-induced DNA damage; also recorded: blocked DXR-induced dsDNA breaks; also recorded: prevents DXR-induced dsDNA breaks; also recorded: prevented DXR-induced double strand DNA breaks
comet moment in stromal cells at 2 hrs ([2]; Bort-DXR mice, 2 hrs, followed by a drop back to baseline): small rise in comet moment
DXR fluorescence (accumulation) in the ovary [3]: dropped DXR fluorescence to baseline levels; also recorded: lack of chemo accumulation; also recorded: prevented DXR accumulation
DXR-induced apoptosis in the mouse ovary / ovarian follicles (mouse ovarian follicles [4]; 0.143 mg/kg Bort 1 hr before 20 mg/kg DXR, 12 hrs): attenuates DXR-induced apoptosis; also recorded: prevented DXR-induced apoptosis
antral follicle apoptotic index (mouse ovarian follicles [4]; [11]): small decrease in the antral follicle apoptotic index; also recorded: did not prevent antral follicle apoptosis
primary follicle apoptosis (TUNEL) (mouse ovarian follicles [4]; [11]): decreased apoptosis in primary follicles; also recorded: appeared to decrease apoptosis in primary follicles
secondary follicle apoptosis (TUNEL) (mouse ovarian follicles [4]; [11]): levels not different from control; also recorded: significantly attenuated TUNEL signal in secondary follicles
DXR nuclear accumulation in L1210 cells (L1210 cells): prevent DXR nuclear accumulation
DXR-induced dsDNA breaks in KK-15 cells (comet moment) (KK-15 granulosa cells): prevented DNA damage
DXR-induced dsDNA breaks in KK-15 cells (comet moment) (KK-15 granulosa cells; listed as Bortezomib): limited DXR-induced dsDNA breaks
pup weight, deviation from control (female CD-1 mice; 0.143 mg/kg Bortezomib 1 hour before 10 mg/kg DXR): ≤ 6 % of control
litter size, mating round 1 (female CD-1 mice; Bort-DXR treated mice, round 1): 8 pups
litter size, mating round 6 (female CD-1 mice; Bort-DXR treated mice, round 6, end of the trial): 12 pups

COc1cccc2c1C(=O)c1c(O)c3c(c(O)c1C2=O)C[C@@](O)(C(=O)CO)C[C@@H]3O[C@H]1C[C@H](N)[C@H](O)[C@H](C)O1 [DXR, Doxorubicin]
PTEN protein expression ([1]; DXR alone, 6 hrs post-injection): appeared to decrease PTEN protein expression levels
phosphorylated AKT1 (pAKT1) levels ([1]; DXR alone, 24 hrs post-injection): appeared to decrease levels of phosphorylated AKT1
γH2A.X phosphorylation (17 kDa band) ([1]; DXR alone, ovarian lysates 6 hrs post-injection): increased γH2A.X phosphorylation
LD50 (KK-15 cells): 50 nM
time to clearance from the blood stream [5]: 15 to 30 min
comet moment (dsDNA breaks), stromal cells ([2]; 20 mg/kg DXR i.p. alone): 150 % control values
comet moment (dsDNA breaks), granulosa cells ([2]; 20 mg/kg DXR i.p. alone, rise over 2-24 hrs post-injection): 250 % control values
apoptotic index, antral follicles (mouse ovarian follicles [6]; 8 hrs post-DXR): 100%
apoptotic index, primary follicles (mouse ovarian follicles [6]; 12 hours post-DXR): 12%
apoptotic index, secondary follicles (plateau) (mouse ovarian follicles [6]; 12 hours post-DXR): 40%
time of first apoptotic events in primordial follicles (mouse ovarian follicles [6]; post-DXR): 48 h
increase of DNA damage over control, granulosa cells ([7]; DXR): ~2 fold
maximal increase of DNA damage, stromal cells ([7]; DXR): 50%
time of first DNA damage, granulosa cells ([7]; post-injection): 4 h
time of first DNA damage, stromal/theca cells ([7]; post-injection): 2 h
time of first significant DNA damage over control, oocytes ([7]; post-injection): 10 to 12 h
apoptotic-positive secondary follicles (mouse ovarian follicles [4]; DXR alone, 12 hrs): doubling of apoptotic-positive secondary follicles
litter size relative to control (female CD-1 mice; 10 mg/kg DXR): 50 % of control
decrease of pup birth weight compared to controls (female CD-1 mice; 10 mg/kg DXR i.p. to 4 week old females): 17%
litter size (female CD-1 mice; 10 mg/kg DXR, over mating rounds): 5-8 pups/litter
ovulation rate relative to pre-DXR [8]: 50%

CC(C)C[C@@H](C=O)NC(=O)[C@H](CC(C)C)NC(=O)[C@H](CC(C)C)NC(=O)OCc1ccccc1 [MG-132] (Cbz-Leu-Leu-Leu-aldehyde)
DXR nuclear accumulation in L1210 cells (L1210 cells): prevent DXR nuclear accumulation
DXR-induced dsDNA breaks in KK-15 cells (comet moment) (KK-15 granulosa cells): limited DXR-induced dsDNA breaks; also recorded: prevented DNA damage
DXR-induced DNA damage in H9C2 cells [9]: prevents DXR-induced DNA damage

N.N.[Cl][Pt][Cl] [cisplatin]
circulating and follicular anti-mullerian hormone (AMH) levels (rodent ovary): decreases circulating and follicular levels of anti-mullerian hormone (AMH)
pregnancy rates and pups per litter (rodent ovary): decreases pregnancy rates and pups per litter
